Tests used:
[1] = system: hepatocyte nuclear factor 1α (HNF-1α); settings: cited from earlier work
PCSK9 gene = settings: cited from earlier work
PCSK9 = assay: ELISA for secreted PCSK9 in conditioned media of Huh7 cells; type: cell-based, human; settings: Huh7, at the concentrations used for Q3G
Description: Media were collected and PCSK9 levels therein were determined by ELISA.
At passage, Huh7 cells were routinely seeded at sub-confluence (˜10^6 cells/10-cm dish) in Dulbecco's modified Eagle's medium (DMEM) containing 10% fetal bovine serum (FBS) or LPDS (for experiments) and 50 μg/ml gentamycin. They were incubated overnight at 37° C., in a humidified 5% CO2-95% air atmosphere. Cells were treated or not with Q3G at defined concentrations and for defined lengths of time. Media were collected and centrifuged at 200 g for 5 min to sediment suspended cells; supernatants were collected and supplemented with 0.33 volumes of a 3×-concentrated PIC. Cell monolayers were rinsed with ice-cold phosphate-buffered saline (PBS); they were overlaid with 0.5 of the RIPA lysis buffer (50 mM Tris-HCl, pH 8, 150 mM NaCl, 1% NP-40, 0.5% Na-deoxycholate and 0.1% SDS) supplemented with 1× PIC. After 20 min in an ice bath, the lysates were centrifuged at 14,000 g and 4° C. for 20 min, and supernatants were collected. Conditioned media and lysates were stored at −20° C. until analysis.
The assays for PCSK9 and insulin were conducted as prescribed by kit manufacturers, using a Thermo Scientific plate reader. For example, PCSK9 levels in conditioned media were measured using the human PCSK9 ELISA kit from Circulex, as specified the manufacturer. The assay was a sandwich immunoassay using two antibodies (A and B) recognizing different PCSK9 epitopes. Briefly, aliquot of diluted media were overlaid on wells coated with anti-PCSK9 antibody A. After 1-h incubation, the wells were washed, overlaid with a solution of HRP-conjugated anti-PCSK9 antibody B, and incubated for 1 h. They were washed again, and overlaid with a solution of tetra-methylbenzidine as a chromogenic substrate for HRP. After 15 min, the reaction was stopped with ammonium sulfate and the absorbance of the reaction mixtures measured by spectrophotometry at 450 nm. All the steps were performed at room temperature. Standards consisted of recombinant human PCSK9.

Apo B = settings: Caco-2 cells, 5-30 μM; cited from earlier work
LDLR [2] = assay: Semi-quantitative immunoblotting for LDLR protein in Huh7 cell lysates; type: cell-based, human; settings: Huh7, at the concentrations of Q3G discussed
Description: At passage, Huh7 cells were routinely seeded at sub-confluence (˜10^6 cells/10-cm dish) in Dulbecco's modified Eagle's medium (DMEM) containing 10% fetal bovine serum (FBS) or LPDS (for experiments) and 50 μg/ml gentamycin. They were incubated overnight at 37° C., in a humidified 5% CO2-95% air atmosphere. Cells were treated or not with Q3G at defined concentrations and for defined lengths of time. Media were collected and centrifuged at 200 g for 5 min to sediment suspended cells; supernatants were collected and supplemented with 0.33 volumes of a 3×-concentrated PIC. Cell monolayers were rinsed with ice-cold phosphate-buffered saline (PBS); they were overlaid with […] the RIPA lysis buffer (50 mM Tris-HCl, pH 8, 150 mM NaCl, 1% NP-40, 0.5% Na-deoxycholate and 0.1% SDS) supplemented with 1× PIC. After 20 min in an ice bath, the lysates were centrifuged at 14,000 g and 4° C. for 20 min, and supernatants were collected. Conditioned media and lysates were stored at −20° C. until analysis.
Cell lysates were fractionated by SDS-PAGE and electrophoretically transferred onto a polyvinylidene fluoride membrane. The membrane was incubated with a goat antihuman LDLR, rabbit anti-PCSK9, or rabbit anti-SREBP-2 polyclonal antibody at 1:1000, 1:1500, and 1:200 dilutions, respectively, and then with a HRP-conjugated heterospecific secondary antibody against the primary Igs at a 1:2000 dilution. It was probed for HRP reaction using the Western Lightning Chemiluminescence Reagent Plus a chemiluminescence-based revelation kit. The signal was captured on X-ray film and immunoreactive bands analyzed by densitometry on a Syngene's ChemiGenius^2XE Bio Imaging System (Cambridge, Mass.) within the dynamic range of the instrument. The membrane was stripped and reprobed with the anti-β-actin monoclonal primary antibody at 1:20,000 dilution and HRP-conjugated rabbit anti-mouse IgG secondary antibody at a 1:5000 dilution. The densitometric values of β-actin bands were using for normalization of experimental samples.
Huh7 cells, hepatocyte derived cellular carcinoma cells, were incubated for 24 h in medium containing 10% lipoprotein-depleted serum (LPDS) and 0 to 10 μM Q3G. The level of LDLR mRNA was measured by quantitative real-time RT-PCR; that of the LDLR protein by semi-quantitative immunoblotting. Exposure to Q3G increased the intracellular content of LDLR mRNA in a concentration-dependent manner; the increase reached a 2× maximum at 2 μM (P<0.01, relative to no Q3G) (FIG. 3A). The content of the corresponding protein followed a similar pattern, but reached a 4× maximum at 4 μM (P<0.005) (FIG. 3B).
The kinetics of cellular accumulation of LDLR and PCSK9 at 2 μM Q3G was also examined: PCSK9 accumulation in the cells began after a 3-h lag; that of LDLR after 6-h lag (FIG. 6).
Statins induce expression of LDLR and PCSK9. […] We examined whether, at a 5 μM concentration of Q3G, simvastatin at 0.2 and 1 μM could further up regulate LDLR expression in Huh7 cells; and, inversely, whether the flavonol can reduce statin-stimulated PCSK9 secretion secreted by Huh7 cells.

LDLR [3] = settings: HepG2 hepatocytes, 75 μM; cited from earlier work

Structure (SMILES): COc1ccc2cc3[n+](cc2c1OC)CCc1cc2c(cc1-3)OCO2 [Berberine]
- expression of HNF-1α [1]: decreased expression
- PCSK9 gene transcription (PCSK9 gene): reduces

Structure (SMILES): O=c1c(O)c(-c2ccc(O)c(O)c2)oc2cc(O)cc(O)c12 [quercetin aglycone, quercetin]
- effect on PCSK9 secretion (PCSK9): not observed
- effect on PCSK9 secretion (PCSK9; listed as aglycone form of quercetin): failed to affect PCSK9 secretion
- Apo B secretion (Apo B): inhibit
- increase in LDLR level (LDLR [2]): not observed
- LDLR expression (LDLR [3]): up-regulation

From US20150190369A1, “QUERCETIN-3-GLUCOSIDE AND USES THEREOF” (priority 2012, published 2015)
